Measured values: patent US11447486B2, “2-amino-benzimidazole derivatives and their use as 5-lipoxygenase and/or prostaglandin E synthase inhibitors” (INSTITUT PASTEUR KOREA, priority 2014, dated 2022)
pEC50, pIC50: −log10 of the molar value.

Tests used:
[1] = tested on: Rat whole blood (RWB); assay: LTB4 secretion assay in RWB (rat whole blood); type: cell-based; conditions: Rattus norvegicus
Summary of the method: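 LTB4 release was measured by EIA in supernatants of pooled, sodium heparin rat blood (male Sprague Dawley, 6-9 weeks) diluted 1:1 with RPMI. Compounds (2.5 nM to 50 uM) were added 15 min before A23187 (10 uM final), with 10 min stimulation at 37 °C before ice-cold PBS quench.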

[2] = biological target: T1, human 5-LOX (Homo sapiens, UniProt P09917); assay: 5-LOX enzyme activity, fluorescence method (5-HPETE, H2DCFDA); type: biochemical; conditions: read-out: 5-LO (IC50)
T1 construct: purchased Cayman 60402; host or cells: insect cells (lysate)
T1 sequence (P09917 1-674): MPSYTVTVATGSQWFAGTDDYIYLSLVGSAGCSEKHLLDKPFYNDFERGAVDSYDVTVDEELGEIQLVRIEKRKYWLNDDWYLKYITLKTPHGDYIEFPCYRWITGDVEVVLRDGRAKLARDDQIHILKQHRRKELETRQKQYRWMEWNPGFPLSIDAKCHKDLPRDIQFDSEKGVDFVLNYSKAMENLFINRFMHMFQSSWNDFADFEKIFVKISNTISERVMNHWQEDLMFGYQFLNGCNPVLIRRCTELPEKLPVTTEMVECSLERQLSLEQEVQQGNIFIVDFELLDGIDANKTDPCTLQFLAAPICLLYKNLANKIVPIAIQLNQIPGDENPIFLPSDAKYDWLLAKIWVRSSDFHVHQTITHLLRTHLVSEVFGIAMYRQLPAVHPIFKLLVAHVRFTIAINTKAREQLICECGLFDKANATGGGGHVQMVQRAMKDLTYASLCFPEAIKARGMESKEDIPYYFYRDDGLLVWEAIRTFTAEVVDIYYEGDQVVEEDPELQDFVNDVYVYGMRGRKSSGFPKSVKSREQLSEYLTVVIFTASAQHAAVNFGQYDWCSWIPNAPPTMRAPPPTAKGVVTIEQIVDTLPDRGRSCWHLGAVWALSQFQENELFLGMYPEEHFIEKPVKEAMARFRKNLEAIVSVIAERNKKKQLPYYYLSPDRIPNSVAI
Summary of the method: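 Fluorescence-based read-out, run entirely at room temperature. Enzyme mixture was exposed to a dose range of compound from 0.5 nM to 10 uM for 5 min before ATP and arachidonic acid were added to final levels of 100 uM and 3 uM.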

[3] = tested on: Rat basophilic leukemia (RBL) cells; assay: LTB4 secretion assay in RBL (rat basophilic leukemia cells); type: cell-based; conditions: Rattus norvegicus, RBL
Summary of the method: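 LTB4 released into supernatant was measured by EIA after 10 min at 37 °C with arachidonic acid (2.5 uM final) and calcium ionophore A23187 (5 uM final). Before stimulation, cells plated 2×10^4/well overnight received compound doses (5 nM to 100 uM) for 15 min in 0.5% FBS medium.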

Structure (SMILES) | pEC50 [1] | pIC50 [2] | pEC50 [3]
CC(C)n1c(NCc2ccc(Oc3ccc(Cl)cn3)cc2)nc2ccc(NC3COC3)cc21 [Compound 271] | > 5.00 | > 6.00 | > 5.00
Cc1cc(Nc2ccc3nc(NCc4ccc(Oc5ncc(Cl)cn5)cc4)n(C)c3c2)nn1C [Compound 465] | > 5.00 | > 6.00 | > 5.00
Nc1ccc2c(c1)nc(N1CCCC1)n2CCOc1ccc(OC(F)(F)F)cc1 [Compound 55] | < 4.70 | 5.00 to 6.00 | > 5.00
Cn1c(NCc2ccc(Oc3ccc(F)cn3)cc2)nc2ccc(NC3COC3)cc21 [Compound 302] | 4.70 to 5.00 | > 6.00 | > 5.00
CC(C)(Nc1ccc2[nH]c(NCc3ccc(Oc4ccc(Cl)cn4)cc3)nc2c1)C(N)=O [Compound 177] | > 5.00 | > 6.00 | > 5.00
Cn1c(NCc2ccc(Oc3ncc(Cl)cn3)cc2)nc2ccc(NC3COC3)cc21 [Compound 289] | > 5.00 | > 6.00 | > 5.00
Cn1c(NCc2ccc(Oc3ccc(Cl)cc3)cc2)nc2ccc(N3CC(F)(F)C3)cc21 [Compound 193] | > 5.00 | < 5.00 | > 5.00
Nc1nc2ccc(NC3COC3)cc2n1Cc1ccc(Oc2ccc(Cl)cn2)cc1 [Compound 234] | > 5.00 | > 6.00 | > 5.00
Cc1cc(Nc2ccc3nc(NCc4ccc(Oc5ncc(C(F)(F)F)cn5)cc4)n(C)c3c2)n[nH]1 [Compound 479] | > 5.00 | > 6.00 | > 5.00
CN(C)c1nc2cc(NCc3ccc(-c4ccnn4C)cc3)ccc2[nH]1 [Compound 196] | 4.70 to 5.00 | > 6.00 | > 5.00
Cc1cc(Nc2ccc3nc(NCc4ccc(Oc5ccc(OC(F)(F)F)cn5)cc4)n(C)c3c2)n[nH]1 [Compound 496] | > 5.00 | > 6.00 | > 5.00
Nc1ccc2[nH]c(N3CCC(Oc4ccc(Cl)cn4)C3)nc2c1 (stereo not drawn) [Compound 160] | < 4.70 | > 6.00 | > 5.00
CCn1c(NCc2ccc(Oc3ncc(Cl)cn3)cc2)nc2ccc(Nc3cc(C)[nH]n3)cc21 [Compound 476] | > 5.00 | > 6.00 | > 5.00
Cn1c(NCc2ccc(Oc3ncc(Cl)cn3)cc2)nc2ccc(Nc3ccccn3)cc21 [Compound 447] | > 5.00 | 5.00 to 6.00 | > 5.00
Cn1c(NCc2c(F)cc(Oc3ncc(Cl)cn3)cc2F)nc2ccc(N)cc21 [Compound 430] | > 5.00 | > 6.00 | > 5.00
Cn1c(NCc2ccc(Oc3ncc(OC(F)(F)F)cn3)cc2)nc2ccc(NC3COC3)cc21 [Compound 412] | > 5.00 | > 6.00 | > 5.00
Cn1nc(Nc2ccc3nc(NCc4ccc(Oc5ccc(Cl)cn5)cc4)n(C)c3c2)cc1C(F)(F)F [Compound 502] | > 5.00 | 5.00 to 6.00 | > 5.00
Nc1ccc2nc(N)n(Cc3ccc(Oc4ccc(Cl)nc4)cc3)c2c1 [Compound 238] | > 5.00 | > 6.00 | > 5.00
Nc1nc2ccc(NC3COC3)cc2n1Cc1ccc(Oc2ccc(Cl)cc2)cc1 [Compound 231] | > 5.00 | > 6.00 | > 5.00
Cc1cc(CNc2nc3ccc(NC4COC4)cc3n2C)cc(C)c1Oc1ncc(Cl)cn1 [Compound 418] | < 4.70 | > 6.00 | < 4.70

Structure (SMILES) | pEC50 [1] | pIC50 [2] | pEC50 [3]
Cn1c(NCc2ccc(COc3ccc(Cl)cn3)cc2)nc2ccc(NC3COC3)cc21 [Compound 305] | < 4.70 | > 6.00 | > 5.00
Cn1nc(Nc2cc(F)c3nc(NCc4ccc(Oc5ncc(Cl)cn5)cc4)n(C)c3c2)cc1C(F)(F)F [Compound 524] | 4.70 to 5.00 | < 5.00 | > 5.00
CCC(Nc1nc2ccc(NC3COC3)cc2n1C)c1ccc(Oc2ncc(C(F)(F)F)cn2)cc1F (stereo not drawn) [Compound 543] | > 5.00 | > 6.00 | > 5.00
CCC(Nc1nc2ccc(Nc3cc(C)[nH]n3)cc2n1C)c1ccc(Oc2ncc(C(F)(F)F)cn2)cc1F (stereo not drawn) [Compound 541] | > 5.00 | > 6.00 | > 5.00
Cn1c(NCc2ccc(Oc3cnc(N)nc3)cc2)nc2ccc(N)cc21 [Compound 360] | > 5.00 | > 6.00 | 4.70 to 5.00
Cn1c(NCc2ccc(Oc3cnc(Cl)nc3)cc2)nc2ccc(NC3COC3)cc21 [Compound 341] | > 5.00 | > 6.00 | 4.70 to 5.00
Cc1cc(Oc2ccc(Cl)cn2)ccc1CNc1nc2ccc(NC3COC3)cc2n1C [Compound 291] | 4.70 to 5.00 | > 6.00 | > 5.00
Cn1c(NCc2ccc(Oc3ncc(Cl)cn3)cc2)nc2ccc(Nc3nc(C(F)(F)F)co3)cc21 [Compound 493] | > 5.00 | 5.00 to 6.00 | > 5.00
CC(C)(C)Nc1ccc2nc(N)n(CCOc3ccc(OC(F)(F)F)cc3)c2c1 [Compound 93] | < 4.70 | > 6.00 | > 5.00
Cn1c(NCc2ccc(Oc3ncc(C#N)cn3)cc2)nc2ccc(N)cc21 [Compound 367] | > 5.00 | > 6.00 | > 5.00
COCCn1c(NCc2ccc(Oc3ccc(Cl)cn3)cc2)nc2ccc(NC3COC3)cc21 [Compound 269] | > 5.00 | > 6.00 | > 5.00
Cn1c(NCc2ccc(Oc3nccc(C(F)(F)F)n3)cc2)nc2ccc(NC3COC3)cc21 [Compound 364] | < 4.70 | > 6.00 | < 4.70
Nc1ccc2[nH]c(NCc3ccc(N4CCC(c5ccc(OC(F)(F)F)cc5)CC4)cc3)nc2c1 [Compound 108] | < 4.70 | > 6.00 | < 4.70
Cn1c(NCc2ccc(Oc3nc4ccccc4n3C)cc2)nc2ccc(NC3COC3)cc21 [Compound 357] | 4.70 to 5.00 | > 6.00 | > 5.00
Nc1ccc2[nH]c(NCc3ccc(Oc4ccc(F)c(F)c4)cc3)nc2c1 [Compound 113] | > 5.00 | > 6.00 | > 5.00
Cc1cc(Nc2cc(F)c3nc(NCc4ccc(Oc5ncc(Cl)cn5)cc4)n(C)c3c2)n[nH]1 [Compound 499] | > 5.00 | > 6.00 | > 5.00
Cn1c(NCc2ccc(Oc3ccc(C#N)cn3)cc2)nc2ccc(NC3COC3)cc21 [Compound 351] | > 5.00 | > 6.00 | 4.70 to 5.00
CCC(Nc1nc2ccc(NC3COC3)cc2n1C)c1ccc(Oc2ccc(C(F)(F)F)cn2)cc1F (stereo not drawn) [Compound 550] | > 5.00 | > 6.00 | > 5.00
Cn1nc(Nc2ccc3nc(NCc4ccc(Oc5ncc(Cl)cn5)cc4)n(C)c3c2)cc1C(F)F [Compound 532] | > 5.00 | > 6.00 | > 5.00
